Experimental data: patent publication US8871753B2, “Macrocyclic compounds and their use as kinase inhibitors” (Incyte Corporation, priority 2008, dated 2014)
pIC50: −log10 of the molar value. Counter-ions that a name gives are not always drawn. Like-named read-outs stand apart in the source and are kept apart here.

Key:
Assay type in all cases: biochemical
[1] = molecular target: T1, human JAK1 (a.a. 837-1142) (Homo sapiens, UniProt P23458); assay: In vitro JAK kinase assay (HTRF, phosphorylation of a biotinylated peptide), JAK1; details: read-out: JAK1 IC50
T1 construct: human JAK1 (a.a. 837-1142); His tag (N); made in house; host or cells: insect cells (baculovirus)
T1 sequence (P23458 849-1154): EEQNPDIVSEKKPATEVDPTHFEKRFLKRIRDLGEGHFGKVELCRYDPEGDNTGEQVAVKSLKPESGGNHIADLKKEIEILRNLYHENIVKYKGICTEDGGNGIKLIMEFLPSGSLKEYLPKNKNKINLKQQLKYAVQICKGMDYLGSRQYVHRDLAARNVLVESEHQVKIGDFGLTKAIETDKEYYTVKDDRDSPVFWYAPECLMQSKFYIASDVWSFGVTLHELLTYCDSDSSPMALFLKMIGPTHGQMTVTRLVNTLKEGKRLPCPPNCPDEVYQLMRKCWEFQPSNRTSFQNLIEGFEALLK
In short: (§1)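 Phosphorylation of a biotinylated peptide by the JAK kinase domain, detected by HTRF with Eu-Py20 and SA-APC. ATP was 90 μM for JAK1, 30 μM for JAK2 and 3 μM for JAK3. Reactions ran 1 h at room temperature and were stopped with EDTA, followed by 40 min antibody binding.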

[2] = molecular target: T2, human JAK2 (a.a. 828-1132) (Homo sapiens, UniProt O60674); assay: In vitro JAK kinase assay (HTRF, phosphorylation of a biotinylated peptide), JAK2
T2 construct: JAK2 (a.a. 828-1132); His tag (N); made in house; host or cells: insect cells (baculovirus)
T2 sequence (O60674 828-1132): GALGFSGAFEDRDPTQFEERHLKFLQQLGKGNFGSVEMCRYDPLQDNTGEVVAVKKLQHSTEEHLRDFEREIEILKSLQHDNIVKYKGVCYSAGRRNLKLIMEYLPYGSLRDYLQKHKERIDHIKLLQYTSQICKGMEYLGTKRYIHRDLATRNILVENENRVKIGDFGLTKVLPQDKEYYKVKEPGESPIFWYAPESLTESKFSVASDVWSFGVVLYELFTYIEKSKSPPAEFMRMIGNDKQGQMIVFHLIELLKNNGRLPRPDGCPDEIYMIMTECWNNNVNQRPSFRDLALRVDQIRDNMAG
In short: as §1

[3] = molecular target: T3, human JAK3 (a.a. 781-1124) (Homo sapiens, UniProt P52333); assay: In vitro JAK kinase assay (HTRF, phosphorylation of a biotinylated peptide), JAK3
T3 construct: JAK3 (a.a. 781-1124); His tag (N); made in house; host or cells: insect cells (baculovirus)
T3 sequence (P52333 781-1124): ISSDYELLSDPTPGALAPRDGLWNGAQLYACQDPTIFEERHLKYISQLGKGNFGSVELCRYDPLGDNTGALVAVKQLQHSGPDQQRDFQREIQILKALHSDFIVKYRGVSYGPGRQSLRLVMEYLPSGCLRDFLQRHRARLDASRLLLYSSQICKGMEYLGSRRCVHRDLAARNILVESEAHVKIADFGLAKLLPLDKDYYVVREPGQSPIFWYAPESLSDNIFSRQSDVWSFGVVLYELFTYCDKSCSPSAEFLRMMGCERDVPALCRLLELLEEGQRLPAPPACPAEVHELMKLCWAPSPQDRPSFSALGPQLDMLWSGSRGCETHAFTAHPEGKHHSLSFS
In short: as §1

TYK2 = TYK2 (Homo sapiens, UniProt P29597); assay: TYK2 kinase inhibition (Table A1)
Chain of TYK2 (P29597 whole entry): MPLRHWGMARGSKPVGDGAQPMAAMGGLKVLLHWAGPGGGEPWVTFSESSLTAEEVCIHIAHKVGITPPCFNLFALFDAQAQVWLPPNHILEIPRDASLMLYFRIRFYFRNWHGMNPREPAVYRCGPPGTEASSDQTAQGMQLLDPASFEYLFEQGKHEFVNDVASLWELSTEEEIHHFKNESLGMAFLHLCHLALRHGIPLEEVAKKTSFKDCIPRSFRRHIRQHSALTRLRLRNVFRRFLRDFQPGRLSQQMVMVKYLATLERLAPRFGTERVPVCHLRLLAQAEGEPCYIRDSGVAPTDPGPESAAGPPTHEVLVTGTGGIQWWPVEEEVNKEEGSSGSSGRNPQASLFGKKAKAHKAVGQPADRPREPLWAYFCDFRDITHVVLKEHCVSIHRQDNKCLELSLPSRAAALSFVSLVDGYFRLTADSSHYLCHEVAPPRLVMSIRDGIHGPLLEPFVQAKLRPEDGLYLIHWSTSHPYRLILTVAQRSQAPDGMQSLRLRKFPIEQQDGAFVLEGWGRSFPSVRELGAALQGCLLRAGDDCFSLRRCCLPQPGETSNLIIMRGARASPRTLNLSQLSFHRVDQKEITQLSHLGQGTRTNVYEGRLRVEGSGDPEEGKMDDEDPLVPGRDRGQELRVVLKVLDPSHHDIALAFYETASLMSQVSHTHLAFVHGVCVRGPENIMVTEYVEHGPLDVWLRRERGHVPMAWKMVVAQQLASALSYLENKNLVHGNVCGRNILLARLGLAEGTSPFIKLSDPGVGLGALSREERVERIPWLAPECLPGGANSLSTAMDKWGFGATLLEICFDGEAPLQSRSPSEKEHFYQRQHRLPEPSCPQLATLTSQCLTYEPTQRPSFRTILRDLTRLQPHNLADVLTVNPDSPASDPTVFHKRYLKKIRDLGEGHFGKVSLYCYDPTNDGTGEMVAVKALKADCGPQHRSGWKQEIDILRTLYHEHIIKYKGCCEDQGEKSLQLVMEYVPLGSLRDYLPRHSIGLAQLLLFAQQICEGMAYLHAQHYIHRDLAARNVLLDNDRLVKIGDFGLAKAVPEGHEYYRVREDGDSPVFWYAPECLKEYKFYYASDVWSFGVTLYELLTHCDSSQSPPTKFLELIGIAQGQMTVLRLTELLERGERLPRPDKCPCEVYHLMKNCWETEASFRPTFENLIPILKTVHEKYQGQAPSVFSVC

[4] = molecular target: T4, Recombinant Human Anaplastic Lymphoma Kinase (Homo sapiens, UniProt Q9UM73); assay: ALK HTRF kinase assay
T4 construct: purchased Invitrogen, Carlsbad, Calif
T4 sequence (Q9UM73 19-1620): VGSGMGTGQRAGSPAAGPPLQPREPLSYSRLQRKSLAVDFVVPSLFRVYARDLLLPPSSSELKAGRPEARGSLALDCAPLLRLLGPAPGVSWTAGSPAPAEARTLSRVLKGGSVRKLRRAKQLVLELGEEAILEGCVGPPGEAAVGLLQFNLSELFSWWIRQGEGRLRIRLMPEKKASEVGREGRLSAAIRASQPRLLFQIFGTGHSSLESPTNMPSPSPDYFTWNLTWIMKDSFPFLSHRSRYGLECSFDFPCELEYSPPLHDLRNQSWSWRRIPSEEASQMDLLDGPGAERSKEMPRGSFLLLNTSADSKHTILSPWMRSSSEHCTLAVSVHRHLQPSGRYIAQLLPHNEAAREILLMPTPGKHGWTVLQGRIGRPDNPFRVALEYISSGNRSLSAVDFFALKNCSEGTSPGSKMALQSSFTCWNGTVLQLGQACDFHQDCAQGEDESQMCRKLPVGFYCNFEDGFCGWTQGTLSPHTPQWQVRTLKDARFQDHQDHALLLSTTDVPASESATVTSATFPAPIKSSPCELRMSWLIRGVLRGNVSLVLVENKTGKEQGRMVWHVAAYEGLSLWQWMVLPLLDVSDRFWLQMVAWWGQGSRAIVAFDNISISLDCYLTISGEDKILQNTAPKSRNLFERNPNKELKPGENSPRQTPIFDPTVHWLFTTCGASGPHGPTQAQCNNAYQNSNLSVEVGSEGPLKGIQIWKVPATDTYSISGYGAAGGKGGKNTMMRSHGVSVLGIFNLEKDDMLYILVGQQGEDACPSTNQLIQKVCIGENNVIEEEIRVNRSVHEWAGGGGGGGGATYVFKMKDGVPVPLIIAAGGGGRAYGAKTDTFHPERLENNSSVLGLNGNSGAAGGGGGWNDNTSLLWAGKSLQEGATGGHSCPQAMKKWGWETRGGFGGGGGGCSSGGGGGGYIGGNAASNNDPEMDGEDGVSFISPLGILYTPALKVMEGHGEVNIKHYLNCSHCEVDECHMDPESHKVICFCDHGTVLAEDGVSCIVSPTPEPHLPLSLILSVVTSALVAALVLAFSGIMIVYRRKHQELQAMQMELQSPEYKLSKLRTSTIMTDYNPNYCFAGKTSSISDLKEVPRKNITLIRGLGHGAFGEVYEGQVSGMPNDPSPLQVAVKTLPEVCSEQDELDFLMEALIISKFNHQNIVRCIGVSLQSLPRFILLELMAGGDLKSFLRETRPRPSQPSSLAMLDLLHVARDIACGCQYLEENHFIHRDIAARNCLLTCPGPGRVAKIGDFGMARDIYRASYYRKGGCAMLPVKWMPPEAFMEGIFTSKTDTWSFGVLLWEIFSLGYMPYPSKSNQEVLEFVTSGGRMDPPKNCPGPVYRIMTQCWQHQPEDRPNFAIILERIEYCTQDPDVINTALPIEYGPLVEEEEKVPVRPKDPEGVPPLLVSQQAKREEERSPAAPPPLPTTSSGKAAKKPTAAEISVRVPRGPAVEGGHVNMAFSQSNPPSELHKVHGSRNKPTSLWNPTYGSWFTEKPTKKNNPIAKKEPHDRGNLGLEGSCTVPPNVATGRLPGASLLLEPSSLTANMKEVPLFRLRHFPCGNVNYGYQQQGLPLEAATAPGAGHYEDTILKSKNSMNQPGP
In short: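 Compounds were incubated with recombinant human ALK and a biotin-tagged peptide substrate. Product was captured with streptavidin-APC and probed with a europium anti-phosphotyrosine antibody, and plates were read for time-resolved fluorescence. Dose-response data were fitted to derive IC50.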

[5] = compound at a concentration of 500 nM or 1 mM (not specified), cells shown as percentage
[6] = method AA1 (90 μM ATP) or AA2 (1000 μM ATP), not stated per value
[7] = method AA1 (30 μM ATP) or AA2 (1000 μM ATP), not stated per value
[8] = method AA1 (3 μM ATP) or AA2 (1000 μM ATP), not stated per value
[9] = compound at 500 nM or 1 mM, 90 μM ATP

SMILES	pIC50 ([1]; Table B1)	pIC50 ([2]; Table B1)	pIC50 ([3]; Table B1)	pIC50 (TYK2; Table B1)	ALK % of inhibition at a concentration of 500 nM or 1 mM [4, 5] [%]	pIC50 [1, 6]	pIC50 [2, 7]	pIC50 [3, 8]	pIC50 (TYK2)	ALK % of inhibition at a concentration of 500 nM or 1 mM [4, 9] [%]	pIC50 ([4]; Table B1, cells without percent sign)
Cc1cnc(NC(=O)Nc2ccc3cc2CCc2cccc(c2)Nc2ncc(Cl)c(n2)N3)s1 [Example B248, N-[6-Chloro-2,4,8,22-tetraazatetracyclo[14.3.1.1(3,7).1(9,13)]docosa-1(20),3(22),4,6,9(21),10,12,16,18-nonaen-12-yl]-N′-(5-methyl-1,3-thiazol-2-yl)urea trifluoroacetate]	7.11	6.77	7.34	7.60	32						
Cn1cc(C(=O)N2CCC(CC(=O)Nc3ccc4cc3CCc3cncc(c3)Nc3ncc(Cl)c(n3)N4)CC2)cn1 [Example A129, N-[6-Chloro-2,4,8,18,22-pentaazatetracyclo[14.3.1.1(3,7).1(9,13)]docosa-1(20),3(22),4,6,9(21),10,12,16,18-nonaen-12-yl]-2-{1-[(1-methyl-1H-pyrazol-4-yl)carbonyl]piperidin-4-yl}acetamide bis(trifluoroacetate)]						7.92	7.77	6.75	7.62	32	
O=C(CC1CCN(S(=O)(=O)c2ccccc2)CC1)Nc1ccc2cc1CCc1cncc(c1)Nc1ncc(Cl)c(n1)N2 [Example A195, N-[6-Chloro-2,4,8,18,22-pentaazatetracyclo[14.3.1.1(3,7).1(9,13)]docosa-1(20),3(22),4,6,9(21),10,12,16,18-nonaen-12-yl]-2-[1-(phenylsulfonyl)piperidin-4-yl]acetamide bis(trifluoroacetate)]						8.15	7.10	< 6.70	6.85	35	
CN(C)S(=O)(=O)N1CCC(CC(=O)Nc2ccc3cc2CCc2cccc(c2)Nc2ncc(Cl)c(n2)N3)CC1 [Example A81, N-[6-Chloro-2,4,8,22-tetraazatetracyclo[14.3.1.1(3,7).1(9,13)]docosa-1(20),3(22),4,6,9(21),10,12,16,18-nonaen-12-yl]-2-{1-[(dimethylamino)sulfonyl]piperidin-4-yl}acetamide trifluoroacetate]						8.33	8.80	7.62	8.37	29	
NC(=O)COc1ccc2cc1CCc1cccc(c1)Nc1ncc(Cl)c(n1)N2 [Example A15, 2-{[6-Chloro-2,4,8,22-tetraazatetracyclo[14.3.1.1(3,7).1(9,13)]docosa-1(20),3(22),4,6,9(21),10,12,16,18-nonaen-12-yl]oxy}acetamide trifluoroacetate]						8.54	8.96	8.32	8.47	79	
O=C(Nc1ccc2c(c1)CCC2)Nc1ccc2cc1CCc1cccc(c1)Nc1ncc(Cl)c(n1)N2 [Example B103, N-[6-Chloro-2,4,8,22-tetraazatetracyclo[14.3.1.1(3,7).1(9,13)]docosa-1(20), 3(22),4,6,9(21),10,12,16,18-nonaen-12-yl]-N′-(2,3-dihydro-1H-inden-5-yl)urea trifluoroacetate]	8.05	7.51	6.91	7.34	49						
O=C(Nc1ccc2cc1CCc1cccc(c1)Nc1ncc(Cl)c(n1)N2)c1cccs1 [Example B34, N-[6-Chloro-2,4,8,22-tetraazatetracyclo[14.3.1.1(3,7).1(9,13)]docosa-1(20),3(22),4,6,9(21),10,12,16,18-nonaen-12-yl]thiophene-2-carboxamide trifluoroacetate]	9.07	9.00	7.89	8.25							6.33
